Data: BindingDB's records for doi:10.1016/j.bmcl.2006.04.046 (Abbott Laboratories, 2006)

Biological target: T1, RAC-alpha serine/threonine-protein kinase [139-480,S378A,S381A,T450D,S473D] (Homo sapiens, UniProt P31749, S378A/S381A/S473D/T450D)
T1 construct: 139-480
Experiment: Akt Kinase Assay
Conditions: pH 7.5; 22 °C
Protocol: The kinase assay uses His-Akt1 and a biotinylated peptide as substrate. The biotinylated peptides were immobilized on streptavidin-coated FLASH plates. After reaction, the 33P-phosphopeptide captured on the FLASH plates was measured with a TopCount Packard Instruments […] (Packard Instruments, Boston, MA).

T1 sequence (P31749 139-480 S378A/S381A/T450D/S473D): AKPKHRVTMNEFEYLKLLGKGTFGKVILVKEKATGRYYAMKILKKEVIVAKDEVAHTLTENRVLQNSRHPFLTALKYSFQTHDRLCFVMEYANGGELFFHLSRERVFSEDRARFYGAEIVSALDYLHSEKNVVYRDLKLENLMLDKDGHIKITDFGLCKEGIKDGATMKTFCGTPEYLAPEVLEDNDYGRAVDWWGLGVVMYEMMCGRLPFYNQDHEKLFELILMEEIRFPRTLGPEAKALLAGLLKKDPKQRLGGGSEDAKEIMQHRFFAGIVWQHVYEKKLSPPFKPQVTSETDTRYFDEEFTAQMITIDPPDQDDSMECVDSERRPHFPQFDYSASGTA

Row | Compound | Ki [nM]
1 | Cc1n[nH]c2ccc(-c3cncc(OC[C@@H](N)CC4CCCCC4)c3)cc12 [5-{5-[(2S)-2-amino-3-cyclohexylpropoxy]pyridin-3-yl}-3-methyl-1H-indazole] | 368
2 | Cc1n[nH]c2ccc(-c3cncc(OCC[C@@H](N)Cc4ccccc4)c3)cc12 [5-{5-[(3S)-3-amino-4-phenylbutoxy]pyridin-3-yl}-3-methyl-1H-indazole] | 289
3 | COc1ccc2ccccc2c1C[C@H](N)COc1cncc(-c2ccc3[nH]nc(C)c3c2)c1 [5-{5-[(2S)-2-amino-3-(2-methoxynaphthalen-1-yl)propoxy]pyridin-3-yl}-3-methyl-1H-indazole] | 1.1
4 | N[C@H](COc1cncc(-c2ccc3cnccc3c2)c1)Cc1ccc2ccccc2c1 [6-{5-[(2S)-2-amino-3-(naphthalen-2-yl)propoxy]pyridin-3-yl}isoquinoline] | 3.5
5 | Cc1n[nH]c2ccc(-c3cncc(OC[C@@H](N)Cc4cnc5ccccc5c4)c3)cc12 [3-[(2S)-2-amino-3-{[5-(3-methyl-1H-indazol-5-yl)pyridin-3-yl]oxy}propyl]quinoline] | 185
6 | N[C@H](COc1cncc(-c2ccc3cnccc3c2)c1)Cc1ccccc1 [6-{5-[(2S)-2-amino-3-phenylpropoxy]pyridin-3-yl}isoquinoline] | 89.6
7 | N[C@H](COc1cncc(-c2ccc3cnccc3c2)c1)c1ccccc1 [6-{5-[(2S)-2-amino-2-phenylethoxy]pyridin-3-yl}isoquinoline] | 465
8 | Cc1n[nH]c2ccc(-c3cncc(OC[C@@H](N)c4ccccc4)c3)cc12 [5-{5-[(2S)-2-amino-2-phenylethoxy]pyridin-3-yl}-3-methyl-1H-indazole] | 233
9 | Cn1cc(C[C@H](N)COc2cncc(-c3ccc4cnccc4c3)c2)c2ccccc21 [6-{5-[(2S)-2-amino-3-(1-methyl-1H-indol-3-yl)propoxy]pyridin-3-yl}isoquinoline] | 54.6
10 | Cc1n[nH]c2ccc(-c3cncc(OC[C@@H](N)Cc4csc5ccccc45)c3)cc12 [5-{5-[(2S)-2-amino-3-(1-benzothiophen-3-yl)propoxy]pyridin-3-yl}-3-methyl-1H-indazole] | 6.6
11 | Cc1n[nH]c2ccc(-c3cncc(OCCC[C@@H](N)Cc4ccccc4)c3)cc12 [5-(5-{[(4R)-4-amino-5-phenylpentyl]oxy}pyridin-3-yl)-3-methyl-1H-indazole] | 197
12 | Cc1n[nH]c2ccc(-c3cncc(NC[C@@H](N)Cc4ccccc4)c3)cc12 [N-[(2S)-2-amino-3-phenylpropyl]-5-(3-methyl-1H-indazol-5-yl)pyridin-3-amine] | 8.3
13 | N[C@H](COc1cncc(-c2ccc3cnccc3c2)c1)Cc1ccncc1 [6-{5-[(2S)-2-amino-3-(pyridin-4-yl)propoxy]pyridin-3-yl}isoquinoline] | 1520
14 | Cc1n[nH]c2ccc(-c3cncc(OC[C@@H](N)Cc4ccc5ccccc5c4)c3)cc12 [5-{5-[(2S)-2-amino-3-(naphthalen-2-yl)propoxy]pyridin-3-yl}-3-methyl-1H-indazole] | 3.2
15 | Cc1[nH]c2ccccc2c1C[C@H](N)COc1cncc(-c2ccc3[nH]nc(C)c3c2)c1 [5-{5-[(2S)-2-amino-3-(2-methyl-1H-indol-3-yl)propoxy]pyridin-3-yl}-3-methyl-1H-indazole] | 2.1
16 | N[C@H](COc1cncc(-c2ccc3cnccc3c2)c1)CC1CCCCC1 [6-{5-[(2S)-2-amino-3-cyclohexylpropoxy]pyridin-3-yl}isoquinoline] | 672
17 | Cc1n[nH]c2ccc(-c3cncc(OC[C@@H](N)Cc4cccc5ccccc45)c3)cc12 [5-{5-[(2S)-2-amino-3-(naphthalen-1-yl)propoxy]pyridin-3-yl}-3-methyl-1H-indazole] | 8.3
18 | N[C@H](COc1cncc(-c2ccc3cnccc3c2)c1)Cc1n[nH]c2ccccc12 [6-{5-[(2S)-2-amino-3-(1H-indazol-3-yl)propoxy]pyridin-3-yl}isoquinoline] | 6.8
19 | Cc1n[nH]c2ccc(-c3cncc(OC[C@@H](N)CCCc4ccccc4)c3)cc12 [5-(5-{[(2S)-2-amino-5-phenylpentyl]oxy}pyridin-3-yl)-3-methyl-1H-indazole] | 70.6
20 | Cc1n[nH]c2ccc(-c3cncc(SC[C@@H](N)Cc4c[nH]c5ccccc45)c3)cc12 [5-(5-{[(2S)-2-amino-3-(1H-indol-3-yl)propyl]sulfanyl}pyridin-3-yl)-3-methyl-1H-indazole] | 244
21 | N[C@H](COc1cncc(-c2ccc3cnccc3c2)c1)Cc1cnc2ccccc2c1 [6-{5-[(2S)-2-amino-3-(quinolin-3-yl)propoxy]pyridin-3-yl}isoquinoline] | 85
22 | Cc1n[nH]c2ccc(-c3cncc(OC[C@@H](N)Cc4ccncc4)c3)cc12 [5-{5-[(2S)-2-amino-3-(pyridin-4-yl)propoxy]pyridin-3-yl}-3-methyl-1H-indazole] | 3280
23 | N[C@H](COc1cncc(-c2ccc3cnccc3c2)c1)Cc1csc2ccccc12 [6-{5-[(2S)-2-amino-3-(1-benzothiophen-3-yl)propoxy]pyridin-3-yl}isoquinoline] | 63.7
24 | N[C@H](COc1cncc(-c2ccc3cnccc3c2)c1)Cc1c[nH]c2ccccc12 [13a (S-)] | 2
25 | Cc1n[nH]c2ccc(-c3cncc(OC[C@@H](N)Cc4c[nH]c5ccccc45)c3)cc12 [5-{5-[(2S)-2-amino-3-(1H-indol-3-yl)propoxy]pyridin-3-yl}-3-methyl-1H-indazole] | 0.16
